ChEMBL document CHEMBL1124834, “5-HT1 and 5-HT2 binding profiles of the serotonergic agents alpha-methylserotonin and 2-methylserotonin” (J Med Chem, 1990)

Experiments:
[1] = target: T1, 5-hydroxytryptamine receptor 1A (Rattus norvegicus, UniProt P19327)
T1 sequence (P19327 whole entry): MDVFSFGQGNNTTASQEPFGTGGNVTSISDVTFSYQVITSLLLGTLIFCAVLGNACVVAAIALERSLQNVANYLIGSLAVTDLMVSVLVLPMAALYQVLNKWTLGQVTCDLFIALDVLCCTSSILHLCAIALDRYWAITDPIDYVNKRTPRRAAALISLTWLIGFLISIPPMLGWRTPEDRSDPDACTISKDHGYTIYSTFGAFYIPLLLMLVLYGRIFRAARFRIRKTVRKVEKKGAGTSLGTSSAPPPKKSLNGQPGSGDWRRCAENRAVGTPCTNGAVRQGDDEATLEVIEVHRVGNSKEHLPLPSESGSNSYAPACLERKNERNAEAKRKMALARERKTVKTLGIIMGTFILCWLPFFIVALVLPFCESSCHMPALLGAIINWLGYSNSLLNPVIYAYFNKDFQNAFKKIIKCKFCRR

[2] = target: 5-hydroxytryptamine receptor 1E (Homo sapiens, UniProt P28566)
Chain of 5-hydroxytryptamine receptor 1E (P28566 whole entry): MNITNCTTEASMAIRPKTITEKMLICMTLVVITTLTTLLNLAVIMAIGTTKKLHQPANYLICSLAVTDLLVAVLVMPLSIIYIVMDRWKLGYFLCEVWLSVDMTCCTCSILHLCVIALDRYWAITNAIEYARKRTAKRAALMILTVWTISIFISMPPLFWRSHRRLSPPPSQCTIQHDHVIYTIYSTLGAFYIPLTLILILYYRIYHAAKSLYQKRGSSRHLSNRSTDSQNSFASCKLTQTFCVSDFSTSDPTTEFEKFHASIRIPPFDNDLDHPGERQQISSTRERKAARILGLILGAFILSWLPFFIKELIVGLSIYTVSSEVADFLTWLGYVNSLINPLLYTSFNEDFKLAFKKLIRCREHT

[3] = target: 5-hydroxytryptamine receptor 1B (Rattus norvegicus, UniProt P28564)
Chain of 5-hydroxytryptamine receptor 1B (P28564 whole entry): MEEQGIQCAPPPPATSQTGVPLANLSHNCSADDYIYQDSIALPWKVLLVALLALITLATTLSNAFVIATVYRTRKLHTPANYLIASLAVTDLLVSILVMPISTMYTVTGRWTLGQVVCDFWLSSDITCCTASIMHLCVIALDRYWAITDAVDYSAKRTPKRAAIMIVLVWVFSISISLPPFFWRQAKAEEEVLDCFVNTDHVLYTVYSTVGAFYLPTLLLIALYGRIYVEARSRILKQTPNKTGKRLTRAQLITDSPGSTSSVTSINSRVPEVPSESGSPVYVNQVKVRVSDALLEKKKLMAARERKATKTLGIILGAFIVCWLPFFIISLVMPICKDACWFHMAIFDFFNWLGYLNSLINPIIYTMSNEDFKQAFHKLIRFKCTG

[4] = target: Serotonin 2 (5-HT2) receptor (Rattus norvegicus, UniProt P30994+P08909+P14842)
[5] = target: T2, 5-hydroxytryptamine receptor 2C (Rattus norvegicus, UniProt P08909)
T2 sequence (P08909 whole entry): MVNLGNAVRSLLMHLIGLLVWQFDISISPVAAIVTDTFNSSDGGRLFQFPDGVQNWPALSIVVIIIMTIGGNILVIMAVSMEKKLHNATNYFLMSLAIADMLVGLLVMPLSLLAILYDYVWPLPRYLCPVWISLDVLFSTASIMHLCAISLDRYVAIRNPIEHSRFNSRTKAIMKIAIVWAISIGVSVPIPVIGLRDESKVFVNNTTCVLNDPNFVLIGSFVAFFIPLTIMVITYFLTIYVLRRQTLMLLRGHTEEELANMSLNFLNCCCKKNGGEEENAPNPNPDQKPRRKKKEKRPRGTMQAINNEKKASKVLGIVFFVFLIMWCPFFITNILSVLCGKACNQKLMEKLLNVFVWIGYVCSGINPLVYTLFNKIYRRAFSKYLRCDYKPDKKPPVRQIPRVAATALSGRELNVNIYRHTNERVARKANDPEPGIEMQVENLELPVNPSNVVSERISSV

SMILES | Ki [1] [nM] | Ki [2] [nM] | Ki [3] [nM] | Ki [4] [nM] | Ki [5] [nM]
Cc1[nH]c2ccc(O)cc2c1CCN | 1200 | > 10000 | 520 | > 10000 | 650
COc1ccc2[nH]c(C)c(CCN)c2c1 | 1300 | > 10000 | 800 | > 10000 | 690
